Earlier results in patent US20060153907A1, “Liposome formulations of boronic acid compounds” (priority 2004, published 2006).

System: tumor lines
Settings: NCI in vitro screen

CC(C)C[C@H](NC(=O)[C@H](Cc1ccccc1)NC(=O)c1cnccn1)B(O)O [bortezomib]
cytotoxicity against a range of tumor lines: showed cytotoxicity
